Reference: patent US20250205253A1, “PHARMACEUTICAL COMPOSITION FOR PREVENTING OR TREATING BENIGN PROSTATIC HYPERPLASIA” (University-Industry Cooperation Group of Kyung Hee …, priority 2023, published 2025)

Tested on: siRNA-transfected RWPE-1 cells
Test: siRNA transfection (NLRP3 or AR knockdown) with qRT-PCR in RWPE-1 cells
Format: cell-based, human
Protocol: Total RNA was isolated using Easy-Blue® reagent (iNtRON Biotechnology, Inc., Gyeonggi, Korea) and transcribed into complementary DNA (cDNA) according to the manufacturer's instructions. Oligonucleotide primers (Table 1) were purchased from Bioneer Corporation (Daejeon, Korea). qRT-PCR was performed according to the known method.
The RWPE-1 cells were transfected with siRNA (Bioneer Corporation) or pmaxGFP™ vector using a 4D-Nucleofector™ system (Lonza, Basel, Switzerland). The following siRNA nucleotide sequences were used: NLRP3 siRNA, […]=tt(1-AS) (SEQ ID NO.: 39) and […]=tt (1-AA) (SEQ ID NO.: 40) and AR siRNA, […]=tt (6-AS) (forward) (SEQ ID NO.: 41) and […]=tt (6-AA) (reverse) (SEQ ID NO.: 42). After four hours of incubation, the cells were treated in the presence or absence of MitoQ 100 μM. The effect of NLRP3 or AR knockdown was detected using qRT-PCR.

Substance	NLRP3 level (mRNA) in AR siRNA-transfected cells (DHT stimulation, with or without 100 μM MitoQ, FIG. 3E)	AR level (mRNA) in NLRP3 siRNA-transfected cells (DHT stimulation, with or without 100 μM MitoQ, FIG. 3D)	NLRP3 and IL-1β levels after siRNA transfection (DHT-stimulated RWPE-1, vs GFP-transfected cells, FIG. 2C)	NLRP3 mRNA expression after siRNA transfection (RWPE-1 cells, FIG. 2G)
AR siRNA: siRNA CUCUCUUCACAGCCGAAGA=tt (SEQ ID NO.: 41) and UCUUCGGCUGUGAAGAGAG=tt (SEQ ID NO.: 42) (3' dTdT overhangs, further chemistry not given here)	significantly enhanced			
NLRP3 siRNA: siRNA CGUGACAGUCCUUCUGGAA=tt (SEQ ID NO.: 39) and UUCCAGAAGGACUGUCACG=tt (SEQ ID NO.: 40) (3' dTdT overhangs, further chemistry not given here)		significantly increased	notably suppressed	significant decrease
